“And” between values parts separate entries of the source, which are not always exact repeats. Equal entries are not always repeated. Where two headings read alike, the source gives them in different places.
What was measured:
[1] = biological target: T1, CDK2 (Homo sapiens, UniProt P24941); assay: Liability panel screening by DSF: CDK2; format: binding; settings: read-out: Mean ΔTM CDK2
T1 construct: made in house
In short: (§1)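 ∆Tm in K was taken from Boltzmann-fitted unfolding inflection points, run in duplicate with a temperature ramp of 3 °C per minute up to 85 °C. Each recombinant protein (2 µM) was in HEPES 10 mM pH 7.5 and NaCl 500 mM, with SYPRO Orange dye at 1:1000.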

[2] = biological target: T2, CSNK1D (Homo sapiens, UniProt P48730); assay: Liability panel screening by DSF: CSNK1D; format: binding; settings: read-out: Mean ΔTM CSNK1D
T2 construct: made in house
In short: as §1

[3] = test system: HEK293T cells; assay: Cytotoxicity: growth-rate (change in confluence over 24 h); settings: 1 µM, normalized to 0.1% DMSO control, single replicates (n=1...)
[4] = test system: NR3C4 (AR); settings: cited from earlier work
[5] = test system: Gal4-VP16; format: cell-based; settings: 1 µM; vs. DMSO ctrl; single replicates n=1-3
[6] = biological target: T3, BRPF1 (Homo sapiens, UniProt P55201); assay: Liability panel screening by DSF: BRPF1; format: binding; settings: read-out: Mean ΔTM BRPF1
T3 construct: This panel comprised ten highly ligandable kinases and bromodomains; made in house
T3 sequence (P55201 628-732 limits assumed): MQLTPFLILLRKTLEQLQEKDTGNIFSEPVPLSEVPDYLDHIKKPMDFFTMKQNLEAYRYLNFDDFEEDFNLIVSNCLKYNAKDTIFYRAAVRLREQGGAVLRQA
In short: as §1

[7] = test system: HEK293T cells; assay: Cytotoxicity: necrosis induction (red fluorescent dye for permeable plasma membranes); format: cell-based; settings: 1 µM, 24 h, necrotic cell count normalized to 0.1% DMSO, single replicates;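 note: compounds applied in DMEM high glucose with 0.1% FCS and 0.1% DMSO, necrotic HEK293T cells counted by red staining of cells whose plasma membranes had become permeable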
[8] = biological target: T4, FGFR3 (Homo sapiens, UniProt P22607); assay: Liability panel screening by DSF: FGFR3; format: binding; settings: read-out: Mean ΔTM FGFR3
T4 construct: made in house
In short: as §1

[9] = test system: NF-κB activity in HEK293 NF-κB reporter cells; assay: NF-kB activity assay (GFP reporter, ionomycin/PMA); format: cell-based; settings: for Mean NFκB response: n=3; for NF-κB activity (inflammatory response to ionomycin/PMA): HEK293 NF-κB reporter cells, compounds at recommended concentrations, imaged over 24 h, n = 3
In short: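 HEK293 NF-κB GFP reporter cells given compound in 0.1% DMSO for 4 h, then stimulated with ionomycin 100 ng/mL plus PMA 10 ng/mL. Imaged every 90 min over 24 h; GFP-positive cell count normalized to confluence, three independent biological replicates.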

[10] = biological target: T5, ABL1 (Homo sapiens, UniProt P00519); assay: Liability panel screening by DSF: ABL1; format: binding; settings: read-out: Mean ΔTM ABL1
T5 construct: made in house
In short: as §1

[11] = biological target: T6, MAPK1 (Homo sapiens, UniProt P28482); assay: Liability panel screening by DSF: MAPK1; format: binding; settings: read-out: Mean ΔTM MAPK1
T6 construct: made in house
In short: as §1

[12] = biological target: T7, BRD4 (Homo sapiens, UniProt O60885); assay: Liability panel screening by DSF: BRD4; format: binding; settings: read-out: Mean ΔTM BRD4
T7 construct: This panel comprised ten highly ligandable kinases and bromodomains; made in house
In short: as §1

[13] = test system: HEK293T cells; assay: Cytotoxicity: apoptosis induction (caspase-3/7 DEVD fluorogenic DNA dye); settings: 1 µM; HEK293T, 24 h; apoptotic cell count normalized to 0.1% DMSO; single replicates
[14] = biological target: T8, TRIM24 (Homo sapiens, UniProt O15164); assay: Liability panel screening by DSF: TRIM24; format: binding; settings: read-out: Mean ΔTM TRIM24
T8 construct: This panel comprised ten highly ligandable kinases and bromodomains; made in house
T8 sequence (O15164 899-1004 limits assumed): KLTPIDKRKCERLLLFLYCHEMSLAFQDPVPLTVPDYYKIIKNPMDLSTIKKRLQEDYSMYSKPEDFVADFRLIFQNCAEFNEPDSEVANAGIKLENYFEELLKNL
In short: as §1

[15] = test system: HEK293T cells; assay: Cytotoxicity: metabolic activity (WST-8 / CCK-8 assay); settings: 1 µM; HEK293T, 24 h; WST-8; normalized to 0.1% DMSO; single replicates
[16] = biological target: T9, GSK3B (Homo sapiens, UniProt P49841); assay: Liability panel screening by DSF: GSK3B; format: binding; settings: read-out: Mean ΔTM GSK3B
T9 construct: made in house

[17] = test system: ATF6 activity in Hela ATF6 reporter cells; assay: Endoplasmic reticulum stress assay (ATF6 Renilla luciferase reporter, tunicamycin); format: cell-based; settings: Homo sapiens, HeLa, 1 µM, single replicates n=1 to n=5; read-out: ER stress [rel. ATF6 activity]
In short: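 HeLa ATF6 Renilla reporter cells were pretreated 4 h with compounds in 0.1% DMSO, then stimulated with tunicamycin (100 ng/mL) for 18 h. Renilla luminescence (DualGlo) was normalized to 0.1% DMSO control; five independent experiments.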

[18] = biological target: T10, AURKA (Homo sapiens, UniProt O14965); assay: Liability panel screening by DSF: AURKA; format: binding; settings: read-out: Mean ΔTM AURKA
T10 construct: made in house
T10 sequence (O14965 1-403): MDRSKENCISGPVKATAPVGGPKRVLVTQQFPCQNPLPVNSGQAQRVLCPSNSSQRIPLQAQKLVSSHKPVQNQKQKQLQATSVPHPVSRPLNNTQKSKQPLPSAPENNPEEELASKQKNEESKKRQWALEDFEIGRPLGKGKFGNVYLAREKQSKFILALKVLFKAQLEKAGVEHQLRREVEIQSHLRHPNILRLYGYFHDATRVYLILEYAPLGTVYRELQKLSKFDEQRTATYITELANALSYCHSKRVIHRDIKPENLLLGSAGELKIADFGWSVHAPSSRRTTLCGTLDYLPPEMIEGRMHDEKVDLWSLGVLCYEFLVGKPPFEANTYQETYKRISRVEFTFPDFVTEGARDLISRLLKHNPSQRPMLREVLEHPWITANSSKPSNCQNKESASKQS
In short: as §1

T4 sequence (P22607 23-806, species assumed): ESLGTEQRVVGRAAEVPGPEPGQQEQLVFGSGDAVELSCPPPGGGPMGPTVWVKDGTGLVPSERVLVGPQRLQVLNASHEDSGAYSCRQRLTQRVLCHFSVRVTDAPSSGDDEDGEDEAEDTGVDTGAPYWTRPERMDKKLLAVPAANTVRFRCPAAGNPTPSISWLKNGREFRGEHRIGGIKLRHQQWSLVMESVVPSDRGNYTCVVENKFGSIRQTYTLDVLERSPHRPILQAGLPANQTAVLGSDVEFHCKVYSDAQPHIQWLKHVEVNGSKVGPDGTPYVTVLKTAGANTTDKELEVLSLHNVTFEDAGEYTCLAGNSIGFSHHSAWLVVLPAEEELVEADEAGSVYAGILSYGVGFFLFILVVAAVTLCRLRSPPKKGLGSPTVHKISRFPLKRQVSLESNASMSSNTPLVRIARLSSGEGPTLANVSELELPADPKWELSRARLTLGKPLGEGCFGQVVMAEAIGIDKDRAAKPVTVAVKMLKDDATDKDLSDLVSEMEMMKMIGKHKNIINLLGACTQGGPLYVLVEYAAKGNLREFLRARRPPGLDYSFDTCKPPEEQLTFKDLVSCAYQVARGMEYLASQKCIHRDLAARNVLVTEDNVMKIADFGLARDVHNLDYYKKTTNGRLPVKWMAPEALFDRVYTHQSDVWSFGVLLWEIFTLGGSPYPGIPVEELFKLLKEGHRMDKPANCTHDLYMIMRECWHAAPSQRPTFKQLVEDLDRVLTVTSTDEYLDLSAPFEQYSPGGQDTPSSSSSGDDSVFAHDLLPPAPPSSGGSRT
T6 sequence (P28482 whole entry, species assumed): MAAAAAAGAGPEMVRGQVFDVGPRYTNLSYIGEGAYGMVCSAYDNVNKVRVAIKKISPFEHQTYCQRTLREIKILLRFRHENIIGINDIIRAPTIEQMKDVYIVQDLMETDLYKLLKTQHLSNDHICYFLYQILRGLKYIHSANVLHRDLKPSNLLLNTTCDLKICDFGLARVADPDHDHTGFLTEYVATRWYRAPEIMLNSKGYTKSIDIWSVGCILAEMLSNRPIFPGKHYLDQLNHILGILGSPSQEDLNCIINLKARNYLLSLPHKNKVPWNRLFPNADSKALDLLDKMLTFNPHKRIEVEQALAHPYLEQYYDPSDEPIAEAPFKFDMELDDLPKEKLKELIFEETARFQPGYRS
T2 sequence (P48730 whole entry, species assumed): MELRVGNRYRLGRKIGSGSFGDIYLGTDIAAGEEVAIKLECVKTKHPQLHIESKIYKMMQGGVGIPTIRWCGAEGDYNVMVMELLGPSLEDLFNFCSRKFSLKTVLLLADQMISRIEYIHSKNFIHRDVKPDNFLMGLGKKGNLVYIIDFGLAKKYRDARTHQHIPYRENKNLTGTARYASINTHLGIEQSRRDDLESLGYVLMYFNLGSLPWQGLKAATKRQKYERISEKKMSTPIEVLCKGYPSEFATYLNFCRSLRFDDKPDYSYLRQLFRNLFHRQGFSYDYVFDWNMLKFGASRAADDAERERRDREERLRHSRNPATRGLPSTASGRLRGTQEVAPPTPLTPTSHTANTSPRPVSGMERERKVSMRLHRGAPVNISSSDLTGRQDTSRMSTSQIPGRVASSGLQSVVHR
T5 sequence (P00519 whole entry, species assumed): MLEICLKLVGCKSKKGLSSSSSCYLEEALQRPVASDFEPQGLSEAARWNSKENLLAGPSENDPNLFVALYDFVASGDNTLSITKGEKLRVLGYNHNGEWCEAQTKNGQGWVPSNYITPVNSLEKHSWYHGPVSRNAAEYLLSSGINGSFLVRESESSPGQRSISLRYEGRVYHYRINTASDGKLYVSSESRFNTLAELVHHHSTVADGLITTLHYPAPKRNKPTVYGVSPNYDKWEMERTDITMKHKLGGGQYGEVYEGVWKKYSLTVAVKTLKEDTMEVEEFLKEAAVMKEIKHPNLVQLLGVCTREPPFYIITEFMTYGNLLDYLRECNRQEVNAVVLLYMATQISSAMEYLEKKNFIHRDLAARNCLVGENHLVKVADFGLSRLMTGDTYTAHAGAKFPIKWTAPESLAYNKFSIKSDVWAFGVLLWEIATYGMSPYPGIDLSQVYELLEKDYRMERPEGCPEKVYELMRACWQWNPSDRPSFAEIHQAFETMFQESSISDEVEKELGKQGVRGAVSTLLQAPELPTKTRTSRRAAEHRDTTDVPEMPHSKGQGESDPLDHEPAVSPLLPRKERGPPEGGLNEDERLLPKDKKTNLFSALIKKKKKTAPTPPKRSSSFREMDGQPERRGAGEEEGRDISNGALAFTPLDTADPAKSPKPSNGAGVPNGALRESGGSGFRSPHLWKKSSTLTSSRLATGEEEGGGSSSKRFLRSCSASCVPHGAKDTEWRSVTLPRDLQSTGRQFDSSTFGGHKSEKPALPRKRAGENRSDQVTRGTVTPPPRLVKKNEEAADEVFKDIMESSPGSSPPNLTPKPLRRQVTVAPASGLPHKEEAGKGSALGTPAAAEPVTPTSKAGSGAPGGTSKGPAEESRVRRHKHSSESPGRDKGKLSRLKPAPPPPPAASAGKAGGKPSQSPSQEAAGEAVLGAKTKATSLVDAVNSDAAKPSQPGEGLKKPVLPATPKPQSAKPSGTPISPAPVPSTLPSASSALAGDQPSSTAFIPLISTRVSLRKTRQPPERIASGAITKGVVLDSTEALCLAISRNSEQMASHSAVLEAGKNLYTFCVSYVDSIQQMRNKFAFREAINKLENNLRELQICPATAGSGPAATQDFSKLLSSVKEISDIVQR
T9 sequence (P49841 whole entry, species assumed): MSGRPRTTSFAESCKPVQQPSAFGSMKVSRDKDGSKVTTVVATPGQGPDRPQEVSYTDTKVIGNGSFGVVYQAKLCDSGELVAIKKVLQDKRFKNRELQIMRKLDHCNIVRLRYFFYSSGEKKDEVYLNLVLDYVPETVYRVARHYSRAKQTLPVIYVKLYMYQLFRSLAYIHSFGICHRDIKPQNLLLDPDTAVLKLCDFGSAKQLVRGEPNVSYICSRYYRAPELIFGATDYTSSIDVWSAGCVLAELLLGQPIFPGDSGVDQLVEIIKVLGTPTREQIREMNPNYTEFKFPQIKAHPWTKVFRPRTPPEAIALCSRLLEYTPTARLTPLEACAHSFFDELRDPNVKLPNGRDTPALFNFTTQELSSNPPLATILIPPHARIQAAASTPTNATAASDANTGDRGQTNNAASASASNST

Row | SMILES | Growth rate [GR] [3] | VP16 control [fold reporter gene activity] [5] | Necrosis induction [NI] [7] | Mean NFκB response ([9]; 1 µM, 1,5 h) | Mean NFκB response ([9]; 1 µM, 4,5 h) | Mean NFκB response ([9]; 1 µM, 7,5 h) | Mean NFκB response ([9]; 1 µM, 10,5 h) | Mean NFκB response ([9]; 1 µM, 13,5 h) | Mean NFκB response ([9]; 1 µM, 16,6 h) | Mean NFκB response ([9]; 1 µM, 19,5 h) | Mean NFκB response ([9]; 1 µM, 22,5 h) | Mean NFκB response ([9]; 1 µM, 3 h) | Mean NFκB response ([9]; 1 µM, 6 h) | Mean NFκB response ([9]; 1 µM, 9 h) | Mean NFκB response ([9]; 1 µM, 12 h) | Mean NFκB response ([9]; 1 µM, 15 h) | Mean NFκB response ([9]; 1 µM, 18 h) | Mean NFκB response ([9]; 1 µM, 21 h) | Mean NFκB response ([9]; 1 µM, 24 h) | NF-κB activity (inflammatory response to ionomycin/PMA) [9] | other results
1 | CC(=O)Nc1ccc(OC[C@](C)(O)C(=O)Nc2ccc([N+](=O)[O-])c(C(F)(F)F)c2)cc1 [Andarine] | 0.83 (2×) and 2.46 and 0.88 and 1.35 and 0.73 and 0.55 and 1.46 and 1.51 and 2.55 | 1.16 fold reporter gene activity and 1.15 fold reporter gene activity and 1.08 fold reporter gene activity | 0.97 and 1.10 and 1.08 and 1.02 | 2599.83 GFP+-cells/confluence ∙ 1000 | 2912.69 GFP+-cells/confluence ∙ 1000 | 4207.99 GFP+-cells/confluence ∙ 1000 | 8408.10 GFP+-cells/confluence ∙ 1000 | 11806.03 GFP+-cells/confluence ∙ 1000 | 14271.49 GFP+-cells/confluence ∙ 1000 | 16631.36 GFP+-cells/confluence ∙ 1000 | 18398.57 GFP+-cells/confluence ∙ 1000 | 2627.11 GFP+-cells/confluence ∙ 1000 | 3252.11 GFP+-cells/confluence ∙ 1000 | 5899.76 GFP+-cells/confluence ∙ 1000 | 10166.51 GFP+-cells/confluence ∙ 1000 | 13144.54 GFP+-cells/confluence ∙ 1000 | 15566.10 GFP+-cells/confluence ∙ 1000 | 17508.52 GFP+-cells/confluence ∙ 1000 | 19523.33 GFP+-cells/confluence ∙ 1000 | anti-inflammatory effect | ΔTm at 20 µM [1]: 0.35 °C; ΔTm at 20 µM [2]: 0.23 °C; rel. activity from literature, NR3C4 (AR): % of DHT ([4]; of DHT (dihydrotestosterone), ref Supplementary Table 1): 93 ± 7%; EC50 ([4]; read-out: Potency [nM] EC50, NR3C4 (AR), (lit.), ref Supplementary Table 1): 4 ± 0.7 nM; ΔTm at 20 µM [6]: 0.97 °C; ΔTm at 20 µM [8]: 2.59 °C; ΔTm at 20 µM [10]: 0.78 °C; ΔTm at 20 µM [11]: -0.26 °C; ΔTm at 20 µM [12]: -0.77 °C; Apoptosis induction [AI] [13]: 0.62 and 0.88 and 1.01 and 1.08 and 0.95 and 0.84; ΔTm at 20 µM [14]: 0.0216 °C; Metabolic activity [MA] [15]: 0.98 and 1.03 and 0.99 and 1.08 and 1.06 (2×) and 1.01 and 1.09; ΔTm at 20 µM [16]: 0.71 °C; activity at 1 µM [17]: 93%; ΔTm at 20 µM [18]: -0.0326 °C
2 | N#Cc1ccc([C@H]2CCCC[C@H]2O)cc1C(F)(F)F [PF-998425] | 0.92 and 1.38 and 1.07 and 1.15 and 0.96 and 0.86 and 0.80 and 0.57 and 1.49 and 3.80 | 1.26 fold reporter gene activity and 1.19 fold reporter gene activity and 1.03 fold reporter gene activity | 0.87 and 1.08 and 0.88 and 1.00 | 2870.31 GFP+-cells/confluence ∙ 1000 | 3725.32 GFP+-cells/confluence ∙ 1000 | 8899.00 GFP+-cells/confluence ∙ 1000 | 17651.00 GFP+-cells/confluence ∙ 1000 | 24472.33 GFP+-cells/confluence ∙ 1000 | 29696.67 GFP+-cells/confluence ∙ 1000 | 33323.33 GFP+-cells/confluence ∙ 1000 | 35466.67 GFP+-cells/confluence ∙ 1000 | 3247.46 GFP+-cells/confluence ∙ 1000 | 5028.67 GFP+-cells/confluence ∙ 1000 | 13977.00 GFP+-cells/confluence ∙ 1000 | 20998.00 GFP+-cells/confluence ∙ 1000 | 27073.33 GFP+-cells/confluence ∙ 1000 | 31376.67 GFP+-cells/confluence ∙ 1000 | 34843.33 GFP+-cells/confluence ∙ 1000 | 36873.33 GFP+-cells/confluence ∙ 1000 | tended to enhance NF-κB activity | ΔTm at 20 µM ([1]; DSF, 20 µM, n=2): 0.11 °C; ΔTm at 20 µM ([2]; DSF, 20 µM, n=2): 0.3 °C; IC50 ([4]; read-out: Potency [nM] IC50, NR3C4 (AR)): 43 ± 12 nM; ΔTm at 20 µM ([6]; DSF, 20 µM, n=2): -0.66 °C; ΔTm at 20 µM ([8]; DSF, 20 µM, n=2): -0.09 °C; ΔTm at 20 µM ([10]; DSF, 20 µM, n=2): 0.55 °C; ΔTm at 20 µM ([11]; DSF, 20 µM, n=2): -0.24 °C; ΔTm at 20 µM ([12]; DSF, 20 µM, n=2): -1.51 °C; Apoptosis induction [AI] [13]: 1.04 and 1.14 and 1.23 and 0.96 and 0.64 and 1.74; ΔTm at 20 µM ([14]; DSF, 20 µM, n=2): -1.04 °C; Metabolic activity [MA] [15]: 1.03 and 0.98 (3×) and 1.06 and 0.99 and 1.07 and 1.00; ΔTm at 20 µM ([16]; DSF, 20 µM, n=2): -0.43 °C; activity at 1 µM [17]: 87%; ΔTm at 20 µM ([18]; DSF, 20 µM, n=2): -1.09 °C

From publication PMC11790914, “Chemogenomics for steroid hormone receptors (NR3)” (Communications Chemistry, 2025)
